In brackets after ≈: the same amount, converted by molar mass. Several values for one entry are separate records, joined by “and”; a condition that tells them apart may be missing. Equal entries are not always repeated. Where two headings read alike, the source gives them in different places.

Data set [1] has as its system Salmonella Typhimurium (ATCC 14028). The experiment in a line: Activity spectrum, microdilution. It is filed as cell-based. Conditions: 24 h, absorbance 600 nm.
Data set [2] has as its system Pseudomonas aeruginosa (ATCC 13388). The data set can be described thus: Activity spectrum, microdilution. In kind it is cell-based. Conditions: 24 h, absorbance 600 nm. (In general: Dilution methods test growth across graded concentrations, often in twofold steps.)
In data set [3] the test system is Staphylococcus aureus (ATCC 6538). The experiment in a line: Activity spectrum, microdilution. It is filed as cell-based. Conditions: 24 h, absorbance 600 nm.
Data set [4] has as its system Escherichia coli (ATCC 11775). The experiment in a line: Activity spectrum, microdilution. It is filed as cell-based. The note with it: 24 h, absorbance 600 nm.
Data set [5] deals with Mycobacterium tuberculosis H37Rv (ATCC 27294), replicating. The data set can be described thus: MIC90 against replicating M. tuberculosis (resazurin microtiter assay, REMA). The note with it: 7 days; for MIC90: Mycobacterium tuberculosis, 168 h. In kind it is cell-based. A general note: Resazurin is reduced to fluorescent resorufin, in cell work by metabolically active cells.

Data set [6] relates to non-replicating (NRP) M. tuberculosis. The experiment in a line: LORA, MIC90 against non-replicating M. tuberculosis. It is filed as cell-based, Mycobacterium tuberculosis.
Method: The LORA method was used to determine the MIC90 of compounds against latent/non-replicating (NRP) mycobacteria. According to Wayne and Sohaskey (2001) [18], under a low-oxygen atmosphere, NRP mycobacteria, containing the plasmid pFCA-ABCDE that encodes a luminescent protein in aerated environments, were plated in a 96-well plate with 100 mL of compounds in a range of 0.39 to 100 μg/mL.
Data set [7] has as its system J774A.1 (ATCC TIB-67) cells. The data set can be described thus: Cytotoxicity against macrophage cells (resazurin). It is filed as cell-based, mice. Conditions: for IC50: Mus musculus.
In data set [8] the test system is intramacrophagic M. tuberculosis H37Rv. The experiment in a line: Intramacrophagic activity (J774A.1 macrophages infected with M. tuberculosis H37Rv, CFU count). Conditions: 5× MIC (6.15 μM), 3 days of exposure. It is filed as cell-based, Mycobacterium tuberculosis.
In data set [9] the test system is Mycobacterium smegmatis mc2155 (ATCC 700084). The experiment in a line: MIC90 against M. smegmatis (resazurin). In kind it is cell-based. Conditions: for Spectrum activity, M. smegmatis: 2 days, resazurin.
The subject of data set [10] is MRC-5 (ATCC CCL-171) cells.
For data set [11], the system named is MRC-5 (ATCC CCL-171) cells. The data set can be described thus: cells. The note with it: Homo sapiens.
The next data set has as its system M. tuberculosis. The data set can be described thus: Time-kill curve. Conditions: MIC and 2× MIC, 15 days. In kind it is cell-based, Mycobacterium tuberculosis.
Data set [12] deals with latent tuberculosis infection (LTBI). The note with it: cited from earlier work; for Efficacy in preventing progression to active tuberculosis infection: LTBI patients, monotherapy, ref Huaman et al. (2019) [28].
The mark [13] stands for this setting: Mycobacterium tuberculosis, LORA, low-oxygen.
The mark [14] stands for this setting: J774A.1 ATCC TIB-67, 24 h, J774A.1, 24 h.
The mark [15] stands for this setting: J774A.1 ATCC TIB-67, 48 h, J774A.1, 48 h.
Where [16] appears, read: J774A.1 ATCC TIB-67, 72 h, J774A.1, 72 h.

On to `CNC(C)C1CCC(N)C(OC2C(N)CC(N)C(OC3OCC(C)(O)C(NC)C3O)C2O)O1` (stereo not drawn) [Gentamicin], for which, in [1], the “Spectrum activity, S. typhimurium” value amounted to 1.16 ± 0.38 µg/mL. Moreover, in data set [2], the “Spectrum activity, P. aeruginosa” value turned out to be 2.02 ± 0.66 µg/mL. The “Spectrum activity, S. aureus” value in data set [3] amounted to 3.97 ± 2.35 µg/mL. Besides, the “Spectrum activity, E. coli” value in data set [4] turned out to be 5.07 ± 0.14 µg/mL.

In the case of `CC1=NN(C(=O)c2ccncc2)C(O)(c2ccccc2)C1` (stereo not drawn) [Hydrazone 14], the “MIC90 Replicating” value in [5] amounted to 1.23 ± 0.53 µM (≈ 0.346 µg/mL). Moreover, the MIC90 (as a rule, the lowest concentration that inhibits either 90% of growth or 90% of the strains tested, depending on the study) in [5] is 1.23 µM and 0.35 µg/mL; in data set [6] (setting [13]), 6.31 µM and 1.77 µg/mL. In data set [6] (LORA, low-oxygen), the “MIC90 Non-Replicating” value stood at 6.31 ± 5.72 µM (≈ 1.78 µg/mL). For the same compound, the “IS (selectivity index)” value in [7] (IC50/MIC90, J774A.1, 24 h) is greater than 289.02; in [7] (IC50/MIC90, J774A.1, 48 h), 240.88; in data set [7] (IC50/MIC90, J774A.1, 72 h), 236.46; in [10] (IC50/MIC90, MRC-5, 24 h), greater than 289.02; in data set [10] (IC50/MIC90, MRC-5, 48 h), greater than 289.02; in [10] (IC50/MIC90, MRC-5, 72 h), greater than 289.02. Besides, the IC50 – broadly, the concentration that inhibits the measured activity by half – in data set [7] (setting [14]) is greater than 100 µg/mL; in data set [7] (setting [15]), 83.3 ± 28.9 µg/mL (≈ 296 µM); in [7] (setting [16]), 81.8 ± 31.5 µg/mL (≈ 291 µM); in data set [11] (MRC5, 24 h) it was greater than 100 µg/mL; in data set [11] (MRC5, 48 h) it was greater than 100 µg/mL; in data set [11] (MRC5, 72 h), greater than 100 µg/mL. Also, in [8], the “intramacrophagic inhibition (log reduction vs untreated)” value stood at 0.5 log10 CFU/mL. The “Spectrum activity, S. typhimurium” value in data set [1] was greater than 100 µg/mL. Moreover, in data set [2], the “Spectrum activity, P. aeruginosa” value was greater than 100 µg/mL. For the same compound, the “Spectrum activity, S. aureus” value in [3] is greater than 100 µg/mL. In addition, the “Spectrum activity, E. coli” value in data set [4] is greater than 100 µg/mL. Further, the “growth inhibition of M. smegmatis” value in [9] is reported as “unable to inhibit the mycobacteria growth”. For the same compound, in data set [9], the “Spectrum activity, M. smegmatis” value was greater than 25.0 µg/mL. Also, the “cytotoxicity” value in data set [10] is reported as “no detectable cytotoxicity”.

For `NNC(=O)c1ccncc1` [Isoniazid], the MIC90 in [5] was 0.44 µM and 0.06 µg/mL; in data set [6] (LORA, low-oxygen), greater than 328.13 µM; in [6] (setting [13]), > 300 µM and > 45 µg/mL. Besides, in [6] (LORA assay), the “inhibition of non-replicating bacteria” value is recorded as “non-inhibition”. In addition, the “IS (selectivity index)” value in data set [7] and in data set [10] was greater than 1666.66 throughout. For the same compound, the IC50 is greater than 100 µg/mL in data set [7] (setting [14]); greater than 100 µg/mL in [7] (setting [15]); greater than 100 µg/mL in data set [7] (setting [16]); greater than 100 µg/mL in [11] (MRC5, 24 h); greater than 100 µg/mL in [11] (MRC5, 48 h); greater than 100 µg/mL in data set [11] (MRC5, 72 h). The “death profile in time-kill curve (bactericidal = 3 log10 CFU/mL decrease)” value with M. tuberculosis is recorded as “bacteriostatic”. Besides, the “Efficacy in preventing progression to active tuberculosis infection” value in data set [12] was 90%. Also, in data set [12] (share of cases, INH monotherapy), the “TB activation after LTBI treatment” value was 10%.

For the compound `CO[C@H]1/C=C/O[C@@]2(C)Oc3c(C)c(O)c4c(O)c(c(/C=N/N5CCN(C)CC5)c(O)c4c3C2=O)NC(=O)/C(C)=C\C=C\[C@H](C)[C@H](O)[C@@H](C)[C@@H](O)[C@@H](C)[C@H](OC(C)=O)[C@@H]1C` [Rifampicin], the MIC90 in [5] was 0.05 µM and 0.04 µg/mL; in data set [6] (setting [13]), < 0.36 µM and < 0.3 µg/mL. Besides, the “death profile in time-kill curve (bactericidal = 3 log10 CFU/mL decrease)” value in the data set on M. tuberculosis is “bacteriostatic”. In addition, in [9], the “Spectrum activity, M. smegmatis” value turned out to be 2.4 ± 1.5 µg/mL. Further, the “Efficacy in preventing progression to active tuberculosis infection” value in data set [12] is listed as roughly 90%.
